Counter-ions that a name gives are not always drawn.
What was measured:
[1] = Two-chamber release test of model drugs from hydrogel laminate; format: physicochemical; conditions: for dye leakage through the laminate into the opposite chamber: absorbance at 550 nm and 630 nm in both chambers; for power law release exponent: release from hydrogel layers of the laminate into DI water, Fickian release
Description: A two-chamber diffusion device was made using cast acrylic plates (McMaster Carr), and small magnetic stir bars and stir plates (VWR International) were used for stirring. For the diffusion tests, a 3cm×3 cm hydrogel, elastomer, or impermeable hydrogel laminate sample was placed between the chambers and screwed together tightly to prevent leakage from the chambers. A 5.0×10−4 M rhodamine B solution (Sigma-Aldrich R6626) was placed on one chamber while DI water was placed in the opposite chamber, and 1 mL aliquots were taken every 10 min and placed in a disposable cuvette. Absorbance was measured using a spectrophotometer (BioMate 3S, ThermoFischer Scientific) and converted to concentration using calibration curves of solutions with known concentrations. The setup for release experiments was identical except both chambers initially contained DI water with rhodamine B and green food dye (Fast green FCF, Sigma-Aldrich F7252) being released from the hydrogel. For rhodamine diffusion and release, a wavelength sweep was performed to determine the maximum absorbance, which occurred at 550 nm. The calibration curve was constructed by measuring absorbance of standard solutions in the 0-50×10−6 m range. For green food dye release, the maximum absorbance occurred at 630 nm. The calibration curve was constructed by measuring absorbance of standard solutions in the 0-200 ppm range.
Taking advantage of the impermeability of the hydrogel-elastomer laminate, the possibility of releasing different molecules from the two sides of the hydrogel sheets in the laminate was tested. Green food dye (Fast Green FCF, Sigma-Aldrich) and rhodamine B were used as model drugs and were loaded into the opposing two hydrogel sheets in the hydrogel-elastomer laminate structure. […] The concentrations of green food dye and rhodamine B in the solutions of both chambers were measured over time using absorbance measurements. […] Since the dyes used have absorbance maximums at different wavelengths (550 nm and 630 nm), it was possible to detect dye leakage through the impermeable hydrogel-elastomer laminate by monitoring the absorbance signals at the two wavelengths in both chambers.

[2] = system: Escherichi coli strain expressing green fluorescent protein; experiment: Bacterial adhesion testing; format: cell-based; conditions: 24 hour incubation; FIG. 4; streptomycin sulfate 0.1 wt %
Description: The high robustness and stretchability of the hydrogel-elastomer laminates allows for proper functioning of the devices under stresses and deformations. […] In addition, the lubricious and highly hydrated hydrogel coating surfaces provided by the present invention are capable of improving protein adsorption, anticlotting and foreign-body reaction of the device as compared to an uncoated device. Moreover, the coating protocol of the present invention can be designed to include therapeutic agents in the hydrogel coating and/or to introduce hydrogel components with known biological responses such as PEG, hyaluronic acid, and zwitterionic groups.
An engineered Escherichi coli strain expressing green fluorescent protein was cultured in a 24-well plate above 8 mm round samples of latex, glass or swollen hydrogel laminate (PAAm-ALG and PAAm-CHI, as described previously). Streptomycin sulfate (Sigma-Aldrich S9137) was added to the two laminate formulations, at a final concentration of 0.1 wt %. After incubating at 37° C. for 24 h, the samples were removed, rinsed with PBS to remove free-floating bacteria, and imaged with a fluorescent microscope (Nikon Eclipse LV100ND).

Compound	dye leakage through the laminate into the opposite chamber [1]	power law release exponent [1]	effect on antibacterial action of the hydrogel laminates [2]
CCN(Cc1cccc(S(=O)(=O)[O-])c1)c1ccc(C(=C2C=CC(=[N+](CC)Cc3cccc(S(=O)(=O)[O-])c3)C=C2)c2ccc(O)cc2S(=O)(=O)[O-])cc1.[Na+].[Na+] [Green food dye, Fast Green FCF]	No green food dye was detected in the rhodamine chamber	0.5	
[H]/N=C(/N)N[C@H]1[C@H](O)[C@@H](O)[C@H](O[C@@H]2O[C@@H](C)[C@](O)(C=O)[C@H]2O[C@@H]2O[C@@H](CO)[C@H](O)[C@@H](O)[C@@H]2NC)[C@@H](N/C(N)=N\[H])[C@@H]1O [antibiotic, Streptomycin sulfate]			improve the antibacterial action
CCN(CC)c1ccc2c(-c3ccccc3C(=O)O)c3ccc(=[N+](CC)CC)cc-3oc2c1 [rhodamine B]	vice versa	0.5	

— patent US20190125934A1, “TOUGH HYDROGEL COATING AND METHOD OF MANUFACTURE” (Massachusetts Institute of Technology, priority 2017, published 2019)
